Source: patent publication US9918990B2, “Substituted pyrrolo[2,3-c]pyridines and pyrazolo[3,4-c]pyridines as BET protein inhibitors” (Incyte Corporation, priority 2013, dated 2018)
Where a name gives a salt, the structure may show the parent alone.

Key:
C-myc = test: KMS.12.BM C-myc ELISA assay; assay type: cell-based; conditions: Homo sapiens; KMS.12.BM cells, 2 hours, concentration required for 50% C-myc inhibition
In short: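 Human myeloma KMS.12.BM cells in RPMI/10% FBS were exposed to a compound concentration range for 2 h, then lysed with protease inhibitors. C-myc in clarified lysates was measured by ELISA. IC50 is the concentration giving 50% C-myc inhibition relative to untreated cells.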

BRD4-BD2 = BRD4-BD2 (Homo sapiens (Human), UniProt O60885); test: BRD4 AlphaScreen assay, BRD4-BD2; assay type: binding; conditions: H4Ac4 peptide, 75 min, room temperature, read-out: BRD4 BD-2 enzyme IC50
In short: (§1)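 AlphaScreen read after 75 min dark incubation at room temperature, inhibitors serially diluted in DMSO and added before other components. IC50 from fit of percent control activity versus log inhibitor concentration.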

BRD4-BD1 = BRD4-BD1 (Homo sapiens (Human), UniProt O60885); test: BRD4 AlphaScreen assay, BRD4-BD1; assay type: binding; conditions: H4Ac4 peptide, 75 min, room temperature, read-out: BRD4 BD-1 enzyme IC50
In short: as §1

KMS.12.BM cells = test: KMS.12.BM cell viability assay (Cell Titer-GLO, ATP quantitation); assay type: cell-based; conditions: Homo sapiens, 72 h, 3 days, concentration required for 50% cell death, read-out: KMS cellular IC50
In short: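 Human myeloma KMS.12.BM cells, 5000 cells/well in RPMI with 10% FBS, were exposed to a compound concentration range for 3 days. Viability was read by Cell Titer-GLO ATP luminescence relative to untreated cells; IC50 is the concentration giving 50% cell death.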

Compound | IC50 (C-myc) | IC50 (BRD4-BD2) | IC50 (BRD4-BD1) | IC50 (KMS.12.BM cells)
Cn1cc(-c2ccc3oc(CNC(=O)Cc4ccccc4)nc3c2Oc2ccccc2)c2cc[nH]c2c1=O [Example 107, N-{[5-(6-Methyl-7-oxo-6,7-dihydro-1H-pyrrolo[2,3-c]pyridin-4-yl)-4-phenoxy-1,3-benzoxazol-2-yl]methyl}-2-phenylacetamide] | ≤ 1000 nM | < 100 nM | < 100 nM | ≤ 1000 nM
Cn1cc(-c2ccc3c(c2Oc2ccc(F)cc2F)n(C)c(=O)n3C)c2cc[nH]c2c1=O [Example 7, 4-(2,4-Difluorophenoxy)-1,3-dimethyl-5-(6-methyl-7-oxo-6,7-dihydro-1H-pyrrolo[2,3-c]pyridin-4-yl)-1,3-dihydro-2H-benzimidazol-2-one] | 1000 to 10000 nM | < 100 nM | < 100 nM | ≤ 1000 nM
Cn1cc(-c2ccc3c(ncn3CCCC#N)c2Oc2ccccc2)c2cc[nH]c2c1=O [Example 52, 4-[5-(6-Methyl-7-oxo-6,7-dihydro-1H-pyrrolo[2,3-c]pyridin-4-yl)-4-phenoxy-1H-benzimidazol-1-yl]butanenitrile] | ≤ 1000 nM | < 100 nM | < 100 nM | ≤ 1000 nM
Cn1cc(-c2ccc3c(ncn3C)c2Oc2ccc(F)cc2)c2cc[nH]c2c1=O [Example 59, 4-[4-(4-Fluorophenoxy)-1-methyl-1H-benzimidazol-5-yl]-6-methyl-1,6-dihydro-7H-pyrrolo[2,3-c]pyridin-7-one] | ≤ 1000 nM | < 100 nM | < 100 nM | ≤ 1000 nM
Cc1nc2c(Oc3ccc(F)cc3F)c(-c3cn(C)c(=O)c4[nH]ncc34)ccc2[nH]1 [Example 15, 4-[4-(2,4-Difluorophenoxy)-2-methyl-1H-benzimidazol-5-yl]-6-methyl-1,6-dihydro-7H-pyrazolo[3,4-c]pyridin-7-one] | ≤ 1000 nM | < 100 nM | < 100 nM | ≤ 1000 nM
Cn1cc(-c2ccc3c([nH]c(=O)n3C)c2Oc2cccc(Cl)c2)c2cc[nH]c2c1=O [Example 87, 4-(3-Chlorophenoxy)-1-methyl-5-(6-methyl-7-oxo-6,7-dihydro-1H-pyrrolo[2,3-c]pyridin-4-yl)-1,3-dihydro-2H-benzimidazol-2-one] | ≤ 1000 nM | < 100 nM | < 100 nM | ≤ 1000 nM
Cn1cc(-c2ccc3c([nH]c(=O)n3C)c2OCC2CCC2)c2cc[nH]c2c1=O [Example 37, 4-(Cyclobutylmethoxy)-1-methyl-5-(6-methyl-7-oxo-6,7-dihydro-1H-pyrrolo[2,3-c]pyridin-4-yl)-1,3-dihydro-2H-benzimidazol-2-one] | ≤ 1000 nM | < 100 nM | < 100 nM | ≤ 1000 nM
Cn1cc(-c2ccc3[nH]c(=O)[nH]c3c2Oc2ccc(F)cc2F)c2cn[nH]c2c1=O [Example 16, 4-[4-(2,4-Difluorophenoxy)-2-oxo-2,3-dihydro-1H-benzimidazol-5-yl]-6-methyl-1,6-dihydro-7H-pyrazolo[3,4-c]pyridin-7-one] | ≤ 1000 nM | < 100 nM | < 100 nM | ≤ 1000 nM
Cn1cc(-c2ccc3[nH]cnc3c2Oc2ccc(F)cc2F)c2cc[nH]c2c1=O [Example 2, 4-[4-(2,4-Difluorophenoxy)-1H-benzimidazol-5-yl]-6-methyl-1,6-dihydro-7H-pyrrolo[2,3-c]pyridin-7-one trifluoroacetate] | ≤ 1000 nM | < 100 nM | < 100 nM | ≤ 1000 nM
Cn1cc(-c2ccc3c(ncn3CC(=O)N3CCOCC3)c2Oc2ccc(F)cc2F)c2cc[nH]c2c1=O [Example 31, 4-[4-(2,4-difluorophenoxy)-1-(2-morpholin-4-yl-2-oxoethyl)-1H-benzimidazol-5-yl]-6-methyl-1,6-dihydro-7H-pyrrolo[2,3-c]pyridin-7-one] | ≤ 1000 nM | < 100 nM | < 100 nM | ≤ 1000 nM
Cn1cc(-c2ccc3c(nnn3C)c2Oc2ccc(F)cc2F)c2cc[nH]c2c1=O [Example 9, 4-[4-(2,4-Difluorophenoxy)-1-methyl-1H-1,2,3-benzotriazol-5-yl]-6-methyl-1,6-dihydro-7H-pyrrolo[2,3-c]pyridin-7-one] | ≤ 1000 nM | < 100 nM | < 100 nM | ≤ 1000 nM
Cn1cc(-c2ccc3ncc(=O)[nH]c3c2Oc2ccc(F)cc2F)c2cn[nH]c2c1=O [Example 75, 8-(2,4-Difluorophenoxy)-7-(6-methyl-7-oxo-6,7-dihydro-1H-pyrazolo[3,4-c]pyridin-4-yl)quinoxalin-2(1H)-one] | ≤ 1000 nM | < 100 nM | < 100 nM | ≤ 1000 nM
Cn1cc(-c2ccc3c([nH]c(=O)n3C)c2OC2CCCCC2)c2cc[nH]c2c1=O [Example 90, 4-(Cyclohexyloxy)-1-methyl-5-(6-methyl-7-oxo-6,7-dihydro-1H-pyrrolo[2,3-c]pyridin-4-yl)-1,3-dihydro-2H-benzimidazol-2-one] | ≤ 1000 nM | < 100 nM | < 100 nM | ≤ 1000 nM
Cn1cc(-c2ccc3c(cnn3C)c2OCC2CC2)c2cn[nH]c2c1=O [Example 77, 4-[4-(Cyclopropylmethoxy)-1-methyl-1H-indazol-5-yl]-6-methyl-1,6-dihydro-7H-pyrazolo[3,4-c]pyridin-7-one] | ≤ 1000 nM | < 100 nM | < 100 nM | ≤ 1000 nM
Cn1cc(-c2ccc3ncn(CCc4ccccc4)c3c2Oc2ccccc2)c2cc[nH]c2c1=O [Example 47, 6-Methyl-4-[7-phenoxy-1-(2-phenylethyl)-1H-benzimidazol-6-yl]-1,6-dihydro-7H-pyrrolo[2,3-c]pyridin-7-one] | ≤ 1000 nM | < 100 nM | < 100 nM | ≤ 1000 nM
Cn1cc(-c2ccc3ncn(CCCC#N)c3c2Oc2ccccc2)c2cc[nH]c2c1=O [Example 51, 4-[6-(6-Methyl-7-oxo-6,7-dihydro-1H-pyrrolo[2,3-c]pyridin-4-yl)-7-phenoxy-1H-benzimidazol-1-yl]butanenitrile] | ≤ 1000 nM | < 100 nM | < 100 nM | ≤ 1000 nM
Cn1cc(-c2ccc3c([nH]c(=O)n3C)c2OC2CCCOC2)c2cc[nH]c2c1=O (stereo not drawn) [Example 91, 1-Methyl-5-(6-methyl-7-oxo-6,7-dihydro-1H-pyrrolo[2,3-c]pyridin-4-yl)-4-(tetrahydro-2H-pyran-3-yloxy)-1,3-dihydro-2H-benzimidazol-2-one] | ≤ 1000 nM | < 100 nM | < 100 nM | ≤ 1000 nM
Cn1cc(-c2ccc3c(c2Oc2ccccc2)NC(=O)CO3)c2cc[nH]c2c1=O [Example 94, 6-(6-Methyl-7-oxo-6,7-dihydro-1H-pyrrolo[2,3-c]pyridin-4-yl)-5-phenoxy-2H-1,4-benzoxazin-3(4H)-one] | ≤ 1000 nM | < 100 nM | < 100 nM | ≤ 1000 nM
Cc1nc2c(Oc3ccc(F)cc3F)c(-c3cn(C)c(=O)c4[nH]ncc34)ccc2n1C [Example 19, 4-[4-(2,4-Difluorophenoxy)-1,2-dimethyl-1H-benzimidazol-5-yl]-6-methyl-1,6-dihydro-7H-pyrazolo[3,4-c]pyridin-7-one] | ≤ 1000 nM | < 100 nM | < 100 nM | ≤ 1000 nM
Cn1cc(-c2ccc3[nH]c(=O)[nH]c3c2OCC2CC2)c2cc[nH]c2c1=O [Example 11, 4-(Cyclopropylmethoxy)-5-(6-methyl-7-oxo-6,7-dihydro-1H-pyrrolo[2,3-c]pyridin-4-yl)-1,3-dihydro-2H-benzimidazol-2-one] | ≤ 1000 nM | < 100 nM | < 100 nM | ≤ 1000 nM
Cn1cc(-c2ccc3oc(CNC(=O)C4CC4)nc3c2Oc2ccccc2)c2cc[nH]c2c1=O [Example 108, N-{[5-(6-Methyl-7-oxo-6,7-dihydro-1H-pyrrolo[2,3-c]pyridin-4-yl)-4-phenoxy-1,3-benzoxazol-2-yl]methyl}cyclopropanecarboxamide] | ≤ 1000 nM | < 100 nM | < 100 nM | ≤ 1000 nM
CNC(=O)Cn1cnc2c(Oc3ccc(F)cc3F)c(-c3cn(C)c(=O)c4[nH]ccc34)ccc21 [Example 36, 2-[4-(2,4-difluorophenoxy)-5-(6-methyl-7-oxo-6,7-dihydro-1H-pyrrolo[2,3-c]pyridin-4-yl)-1H-benzimidazol-1-yl]-N-methylacetamide] | ≤ 1000 nM | < 100 nM | < 100 nM | ≤ 1000 nM
CN(C)C(=O)Cn1cnc2c(Oc3ccc(F)cc3F)c(-c3cn(C)c(=O)c4[nH]ccc34)ccc21 [Example 34, 2-[4-(2,4-difluorophenoxy)-5-(6-methyl-7-oxo-6,7-dihydro-1H-pyrrolo[2,3-c]pyridin-4-yl)-1H-benzimidazol-1-yl]-N,N-dimethylacetamide] | ≤ 1000 nM | < 100 nM | < 100 nM | ≤ 1000 nM
Cn1cc(-c2ccc3c(ncn3CCc3ccccc3)c2Oc2ccccc2)c2cc[nH]c2c1=O [Example 48, 6-Methyl-4-[4-phenoxy-1-(2-phenylethyl)-1H-benzimidazol-5-yl]-1,6-dihydro-7H-pyrrolo[2,3-c]pyridin-7-one] | ≤ 1000 nM | < 100 nM | < 100 nM | ≤ 1000 nM
